Source: patent US20220274947A1, “NOVEL HETEROARYL-TRIAZOLE COMPOUNDS AS PESTICIDES” (Bayer Aktiengesellschaft, priority 2019, published 2022)

Assays:
Assay type in all cases: in vivo
Rhipicephalus microplus [1] = assay: Rhipicephalus (Boophilus) microplus in-vitro contact test, larval cattle tick, strain Parkhurst (BOOPMI Cont); conditions: application rate 5 μg/cm^2 (=500 g/ha), tick larvae, after 48 hours, read-out: activity (efficacy: 100% means all larvae are dead or moribund)
In short: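 Acetone solutions dried onto glass tube walls (900 ppm giving 5 μg/cm^2); 20-50 pyrethroid-resistant Parkhurst larvae added per tube and held 48 h at 27° C., 85% relative humidity. Efficacy scored by negative geotaxis as % dead or moribund larvae.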

Diabrotica balteata = Diabrotica balteata spray test; conditions: 168 h, wheat seeds, larvae, after 7 days, read-out: activity (efficacy: 100% means all seedlings have grown up like in the untreated, uninfected control); for pest or weed control at 32 µg/disc, 100 g/ha: application rate 100 g/ha (=32 μg/well); for pest or weed control at 160 µg/disc, 500 g/ha: application rate 500 g/ha (=160 μg/well)
In short: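 Wheat seedlings, germinated 1 day on agar, were sprayed with compound in acetone/DMF diluted in water containing emulsifier, then infested with 10-20 Diabrotica balteata larvae. After 7 days efficacy in % was scored: 100% means seedlings grew like the untreated, uninfected control; 0% means none grew.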

Rhipicephalus microplus [2] = assay: Rhipicephalus (Boophilus) microplus injection test (BOOPMI Inj); conditions: 168 h, injection into adult engorged female ticks, egg deposition after 7 days, read-out: activity (efficacy: 100% means all eggs are infertile); for pest or weed control at 0.02 mg: application rate 20 μg/tick; for pest or weed control at 0.004 mg: application rate 4 μg/tick
In short: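 Five engorged adult female R. microplus ticks injected into the abdomen with 1 μL of compound diluted in DMSO, then kept in a climate chamber. Fertile egg deposition checked after 7 days; eggs without visible fertility held until hatching at about 42 days. Efficacy: 100% = all eggs infertile, 0% = all fertile.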

Meloidogyne incognita = Meloidogyne incognita test; conditions: application rate 20 ppm, salad seedlings, after 14 days
Description: Meloidogyne incognita—Test Solvent: 125.0 parts by weight of acetone
To produce a suitable preparation of active compound, 1 part by weight of active compound is mixed with the stated amount of solvent, and the concentrate is diluted with water to the desired concentration.
Vessels are filled with sand, a solution of the active ingredient, a suspension containing eggs and larvae of the southern root-knot nematode (Meloidogyne incognita) and salad seeds. The salad seeds germinate and the seedlings grow. Galls develop in the roots.
After 14 days the nematicidal activity is determined based on the percentage of gall formation. 100% means no galls were found and 0% means the number of galls found on the roots of the treated plants was equal to that in untreated control plants.

Spodoptera frugiperda = Spodoptera frugiperda spray test; conditions: in Zea mays, 168 h, read-out: activity (mortality)
In short: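 Maize leaf sections were sprayed with compound formulated in acetone/DMF and diluted in water containing 1000 ppm emulsifier. Dried leaves were infested with fall armyworm larvae, and percent mortality was scored after 7 days.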

Ctenocephalides felis [3] = assay: Ctenocephalides felis oral test (CTECFE Oral); conditions: 48 h, read-out: activity (mortality)
In short: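 About 20 unfed adult cat fleas fed through parafilm on cattle blood containing compound (DMSO concentrate diluted in blood to the desired concentration). Blood held at 37 °C, fleas at room temperature. Mortality (%) scored after 2 days.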

[4] = system: Aedes aegypti strain MONHEIM; assay: Aedes aegypti test (AEDSAE surface treatment & contact assay); conditions: exposure 30 minutes, 24 hours after contact, read-out: efficacy (mortality); for mortality at 20 mg/m2: surface concentration 20 mg/m^2, glazed tile; for mortality at 4 mg/m2: surface concentration 4 mg/m^2, glazed tile
In short: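 Compound dissolved in acetone (2 mg/ml) with 2000 ppm rapeseed oil methyl ester, pipetted onto glazed tile and dried. Adult mosquitoes exposed on the surface for 30 min; percent mortality scored 24 h after contact.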

Rhipicephalus sanguineus = Rhipicephalus sanguineus in-vitro contact test, adult brown dog ticks (RHIPSA Cont); conditions: 48 h, after 48 hours, read-out: activity (efficacy: 100% means all ticks are dead or moribund); for pest or weed control at 1 µg/cm2, 100 g/ha: application rate 1 μg/cm^2 (=100 g/ha); for pest or weed control at 5 µg/cm2, 500 g/ha: application rate 5 μg/cm^2 (=500 g/ha)
In short: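 Compound in acetone (9 mg/mL stock, diluted to test concentration) is coated onto inner walls of glass tubes by rotation for 2 h at 30 rpm. Efficacy is read after 48 h: ticks are tapped down and held on a 45-50° C plate for at most 5 min, and immotile or uncoordinated ones that fail to climb away count as dead or moribund.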

Myzus persicae [5] = assay: Myzus persicae oral test; conditions: 120 h, read-out: activity (mortality)
In short: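 Percent mortality was recorded at day 5, where 0% means no aphids killed. Compound prepared from an acetone concentrate diluted in water and combined with IPL41 medium containing sugar was offered to mixed-stage green peach aphids, which sucked it through a parafilm seal.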

[6] = system: Musca domestica strain WHO—N; assay: Musca domestica test (MUSCDO surface treatment & contact assay); conditions: surface concentration 20 mg/m^2, glazed tile, exposure 30 minutes, 24 hours after contact, read-out: efficacy (mortality)
In short: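 Compound dissolved in acetone (2 mg/ml) with 2000 ppm rapeseed oil methyl ester and pipetted onto glazed tile; after acetone evaporation, adult flies exposed to dried surface for 30 minutes. Mortality (%) scored 24 hours after contact.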

Ctenocephalides felis [7] = assay: Ctenocephalides felis in-vitro contact test, adult cat flea (CTECFE Cont); conditions: application rate 5 μg/cm^2 (=500 g/ha), adult cat fleas, after 48 hours, read-out: activity (efficacy: 100% means all fleas are dead or moribund)
In short: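 Acetone solutions coated on glass tube inner walls (900 ppm giving 5 μg/cm^2), then 5-10 adult fleas added and held 48 h at room temperature. Fleas unable to escape a 45-50° C. heating plate within 5 min scored dead or moribund; efficacy = % dead/moribund.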

[8] = system: Anopheles funestus strain FUMOZ-R; assay: Anopheles funestus test (ANPHFU surface treatment & contact assay); conditions: surface concentration 20 mg/m^2, glazed tile, exposure 30 minutes, 24 hours after contact, read-out: efficacy (mortality)
Description: Anopheles funestus Test (ANPHFU Surface Treatment & Contact Assay) Solvent: Aceton+2000 ppm rapeseed oil methyl ester (RME)
(§1) In order to produce a sufficient, active ingredient containing solution it is necessary to solve the test compound in the solvent-mix (acetone at 2 mg/ml/RME 2000 ppm). This solution is pipetted onto a glazed tile and after evaporation of the acetone, adult mosquitoes of the species Anopheles funestus strain FUMOZ-R (Hunt et al., Med. Vet. Entomol. 2005 September; 19(3): 271-275) are placed onto the dried surface. The exposure time is 30 minutes. Mortality in percent (%) is determined 24 hours after contact of the insects to the treated surface. 100% mortality means that all tested insects are dead, whereas 0% means that no insect died.

Myzus persicae [9] = assay: Myzus persicae spray test; conditions: in Brassica rapa, foliar, 120 h, read-out: activity (mortality), application rate 100 g/ha, spray, Chinese cabbage leaf disks, after 5 days
In short: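 Compound in acetone/DMF solvent diluted in water with 1000 ppm alkylarylpolyglycol ether emulsifier, sprayed onto Chinese cabbage leaf disks infested with all instars of Myzus persicae. Mortality (%) scored after 5 days.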

[10] = system: Blattella germanica strain PAULINIA; assay: Blattella germanica test (BLTTGE surface treatment & contact assay); conditions: surface concentration 20 mg/m^2, glazed tile, exposure 30 minutes, 24 hours after contact, read-out: efficacy (mortality)
Description: Blattella germanica Test (BLTTGE Surface Treatment & Contact Assay) Solvent: Aceton+2000 ppm rapeseed oil methyl ester (RME)
as §1, with “animals” for “mosquitoes”, “Blattella germanica” for “Anopheles funestus”, “FUMOZ-R (Hunt et al., Med. Vet. Entomol. 2005 September; 19(3): 271-275)” left out

Tetranychus urticae = Tetranychus urticae spray test, OP-resistant; conditions: foliar, 144 h, application rate 500 g/ha, French bean leaf disks, after 6 days
Description: Tetranychus urticae—Spray Test OP-Resistant Solvent: 78.0 parts by weight acetone • 1.5 parts by weight dimethylformamide Emulsifier: alkylarylpolyglycol ether
(§2) To produce a suitable preparation of active compound, 1 part by weight of active compound is mixed with the stated amount of solvents and is diluted with water, containing an emulsifier concentration of 1000 ppm, to the desired concentration. Further test concentrations are prepared by dilution with emulsifier containing water.
French bean (Phaseolus vulgaris) leaf disks infected with all instars of the two spotted spidermite (Tetranychus urticae), are sprayed with a preparation of the active ingredient of the desired concentration.
After 6 days mortality in % is determined. 100% means all spider mites have been killed and 0% means none of the spider mites have been killed.

Nilaparvata lugens = Nilaparvata lugens spray test; conditions: 96 h, application rate 100 g/ha, rice plants, after 4 days
Description: Nilaparvata lugens—Spray Test Solvent: 78.0 parts by weight of acetone • • 1.5 parts by weight of dimethylformamide Emulsifier: alkylarylpolyglycol ether
as §2
Rice plants (Oryza sativa) are sprayed with a preparation of the active ingredient of the desired concentration and the plants are infested with the brown planthopper (Nilaparvata lugens).
After 4 days mortality in % is determined. 100% means all planthoppers have been killed and 0% means none of the planthoppers have been killed.

Compound | pest or weed control at 5 µg/cm2 (Rhipicephalus microplus [1]) [%] | pest or weed control at 32 µg/disc, 100 g/ha (Diabrotica balteata) [%] | pest or weed control at 160 µg/disc, 500 g/ha (Diabrotica balteata) [%] | pest or weed control at 0.02 mg (Rhipicephalus microplus [2]) [%] | nematicidal activity (100% means no galls were found) (Meloidogyne incognita) [%] | mortality at 100 g/ha (Spodoptera frugiperda) [%] | mortality at 500 g/ha (Spodoptera frugiperda) [%] | mortality at 100 ppm (Ctenocephalides felis [3]) [%] | pest or weed control at 0.004 mg (Rhipicephalus microplus [2]) [%] | mortality at 20 mg/m2 [4] [%] | pest or weed control at 1 µg/cm2, 100 g/ha (Rhipicephalus sanguineus) [%] | pest or weed control at 5 µg/cm2, 500 g/ha (Rhipicephalus sanguineus) [%] | further results
CCOc1nc([C@H](C)NC(=O)c2cc(Cl)cc(C(F)(F)F)c2)n(-c2ccc(C#N)cn2)n1 [I-12] | 100 | 100 | 100 | 100 | 90 | 100 | 100 | 90 |  |  |  |  | 
CCOc1nc([C@H](C)NC(=O)c2cc(C(F)(F)F)cc(C(F)(F)F)c2)n(-c2ccc(C#N)cn2)n1 [I-13] | 100 | 100 | 100 | 100 | 90 | 100 | 100 | 100 | 100 |  |  |  | 
CCOc1nc([C@H](C)NC(=O)c2cc(Cl)cc(Cl)c2)n(-c2ccc(C#N)cn2)n1 [I-14] | 100 | 100 | 100 | 100 | 100 | 83 | 100 |  | 100 |  |  |  | 
CC(C)c1nc([C@H](C)NC(=O)c2cc(Cl)cc(Br)c2)n(-c2ccc(C#N)cn2)n1 [I-19] | 100 | 100 |  | 100 | 90 | 100 |  | 100 | 100 | 80 to 100 | 100 | 100 | 
CC(C)c1nc([C@H](C)NC(=O)c2cccc(Br)n2)n(-c2ccc(C#N)cn2)n1 [I-23] |  |  |  | 100 | 90 |  |  |  | 80 |  |  | 80 | 
C[C@H](NC(=O)c1cc(Cl)cc(C(F)(F)F)c1)c1ncnn1-c1cc([N+](=O)[O-])ccn1 [II-24] | 100 |  | 80 | 100 | 100 |  | 100 |  | 80 |  | 80 |  | 
C[C@H](NC(=O)c1cc(Cl)cc(OC(F)(F)F)c1)c1ncnn1-c1cc(NC(=O)C2CC2)ccn1 [II-25] | 100 |  | 80 | 100 | 90 | 100 | 100 |  | 100 | 80 to 100 |  | 80 | mortality at 4 ppm (Myzus persicae [5]): 100%; mortality at 4 mg/m2 [4]: 80 to 100%; mortality at 20 mg/m2 [6]: 80 to 100%
CC(=O)N(C)c1ccc(-n2ncnc2[C@H](C)NC(=O)c2cc(Cl)cc(C(F)(F)F)c2)nc1 [II-80] | 100 |  |  |  |  |  |  | 100 | 80 | 80 to 100 |  |  | mortality at 0.8 ppm (Myzus persicae [5]): 100%; mortality at 4 mg/m2 [4]: 80 to 100%; pest or weed control at 5 µg/cm2 (Ctenocephalides felis [7]): 100%; mortality at 20 mg/m2 [8]: 80 to 100%; mortality at 100 g/ha (Myzus persicae [9]): 90%; mortality at 20 mg/m2 [10]: 80 to 100%; mortality at 500 g/ha (Tetranychus urticae): 90%
Cc1nc([C@H](C)NC(=O)c2cc(Cl)cc(C(F)(F)F)c2)n(-c2cnc(C#N)cn2)n1 [II-104] | 100 |  |  |  |  | 100 |  | 100 | 100 |  | 100 | 100 | pest or weed control at 5 µg/cm2 (Ctenocephalides felis [7]): 100%; mortality at 100 g/ha (Nilaparvata lugens): 90%; mortality at 100 g/ha (Myzus persicae [9]): 100%
